Measurements from publication PMC8218931, “Enhancement of oral bioavailability of quercetin by metabolic inhibitory nanosuspensions compared to conventional nanosuspensions” (Drug Delivery, 2021).
Values after ≈ are worked out from the molar mass of the structure shown.

Legend:
[1] = set-up: method as in Xiao et al., 2005; details: rats, radiolabeled quercetin by gavage, free or metabolized; ref Xiao et al., 2005; cited from earlier work
[2] = Solubility of Que in release medium; assay type: physicochemical; details: PBS containing 0.1% (w/v) Tween 80 (pH 7.4)
[3] = set-up: method as in Justino et al., 2004; details: rats, single oral 10 mg quercetin/200 g body weight, an hour later; ref Justino et al., 2004; cited from earlier work
[4] = set-up: method as in Xiao et al., 2005; details: ref Xiao et al., 2005, cited from earlier work
[5] = set-up: method as in Bi et al., 2019; details: piperine as a bioenhancer; ref Bi et al., 2019; cited from earlier work

SMILES | Total quercetin absorbed [1] [%] | solubility [2] [µg/mL] | Quercetin metabolized [3] [%] | Solubility in artificial gastric juice ([4]; artificial gastric juice) [µg/mL] | Solubility in artificial intestinal juice ([4]; artificial intestinal juice) [µg/mL] | Solubility in water ([4]; water) | Bioavailability of silybin [5]
O=c1c(O)c(-c2ccc(O)c(O)c2)oc2cc(O)cc(O)c12 [Quercetin, 3,3′,4′,5,7-pentahydroxyflavone] | 20 | 30 (≈ 99.3 µM) | 93 | 5.5 (≈ 18.2 µM) | 28.9 (≈ 95.6 µM) | about 0.09 μg/mL | 
O=C(/C=C/C=C/c1ccc2c(c1)OCO2)N1CCCCC1 [piperine, Piperine] |  |  |  |  |  |  | 146–181%
